Patent publication US11505533B2, “Metabolically stable N-acylaminooxadiazoles useful as antibacterial agents” (MICROBIOTIX, INC., priority 2017, dated 2022)

Tests used:
Type in all cases: binding
[1] = target: T1, Adrenergic α1B (Rattus norvegicus, UniProt P15823); settings: for % Inhibition: 10 μM
T1 sequence (P15823 1-515): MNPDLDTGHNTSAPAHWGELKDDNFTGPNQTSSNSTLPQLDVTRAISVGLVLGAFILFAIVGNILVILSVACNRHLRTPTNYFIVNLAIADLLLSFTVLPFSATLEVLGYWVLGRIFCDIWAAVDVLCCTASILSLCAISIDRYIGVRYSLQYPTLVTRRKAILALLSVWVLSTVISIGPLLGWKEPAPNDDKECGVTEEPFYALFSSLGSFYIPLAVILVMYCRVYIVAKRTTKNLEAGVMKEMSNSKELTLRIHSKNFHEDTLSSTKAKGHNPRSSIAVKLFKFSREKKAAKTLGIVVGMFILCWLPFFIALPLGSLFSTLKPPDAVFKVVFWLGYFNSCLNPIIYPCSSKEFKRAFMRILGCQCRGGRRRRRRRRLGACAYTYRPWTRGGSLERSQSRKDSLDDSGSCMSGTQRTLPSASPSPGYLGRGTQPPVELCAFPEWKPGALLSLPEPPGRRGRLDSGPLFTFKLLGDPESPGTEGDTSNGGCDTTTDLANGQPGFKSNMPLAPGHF

[2] = target: T2, Adrenergic α2A (Homo sapiens, UniProt P08913); settings: for % Inhibition: 10 μM
T2 sequence (P08913 1-465): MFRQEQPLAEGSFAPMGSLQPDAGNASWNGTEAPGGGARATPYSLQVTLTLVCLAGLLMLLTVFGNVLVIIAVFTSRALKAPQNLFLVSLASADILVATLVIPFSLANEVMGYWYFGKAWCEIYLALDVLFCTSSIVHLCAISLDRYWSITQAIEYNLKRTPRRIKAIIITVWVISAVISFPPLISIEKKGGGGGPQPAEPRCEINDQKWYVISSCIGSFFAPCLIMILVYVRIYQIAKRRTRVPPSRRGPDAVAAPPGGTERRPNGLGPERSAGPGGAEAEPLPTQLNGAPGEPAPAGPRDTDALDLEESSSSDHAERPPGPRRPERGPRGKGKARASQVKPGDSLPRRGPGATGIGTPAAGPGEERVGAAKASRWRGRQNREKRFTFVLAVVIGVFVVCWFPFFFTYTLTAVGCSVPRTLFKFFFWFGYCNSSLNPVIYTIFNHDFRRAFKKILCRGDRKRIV

[3] = target: Adrenergic β1 (Homo sapiens, UniProt P08588); settings: for % Inhibition: 10 μM
[4] = target: Adrenergic β2 (Homo sapiens, UniProt P07550); settings: for % Inhibition: 10 μM
[5] = system: Calcium Channel L-type, Dihydropyridine; settings: 10 μM; rat
[6] = target: Cannabinoid CB1 (Homo sapiens, UniProt P21554); settings: for % Inhibition: 10 μM
[7] = target: Dopamine D1 (Homo sapiens, UniProt P21728); settings: for % Inhibition: 10 μM
[8] = target: Dopamine D2s (Homo sapiens, UniProt P14416); settings: for % Inhibition: 10 μM
[9] = system: GABAA, Flunitrazepam, Central; settings: 10 μM; rat
[10] = system: GABAA, Muscimol, Central; settings: 10 μM; rat
[11] = system: Glutamate, NMDA, Phencyclidine; settings: 10 μM; rat
[12] = system: Imidazoline I2, Central; settings: 10 μM; rat
[13] = target: T3, Muscarinic M2 (Homo sapiens, UniProt P08172); settings: for % Inhibition: 10 μM
T3 sequence (P08172 1-466): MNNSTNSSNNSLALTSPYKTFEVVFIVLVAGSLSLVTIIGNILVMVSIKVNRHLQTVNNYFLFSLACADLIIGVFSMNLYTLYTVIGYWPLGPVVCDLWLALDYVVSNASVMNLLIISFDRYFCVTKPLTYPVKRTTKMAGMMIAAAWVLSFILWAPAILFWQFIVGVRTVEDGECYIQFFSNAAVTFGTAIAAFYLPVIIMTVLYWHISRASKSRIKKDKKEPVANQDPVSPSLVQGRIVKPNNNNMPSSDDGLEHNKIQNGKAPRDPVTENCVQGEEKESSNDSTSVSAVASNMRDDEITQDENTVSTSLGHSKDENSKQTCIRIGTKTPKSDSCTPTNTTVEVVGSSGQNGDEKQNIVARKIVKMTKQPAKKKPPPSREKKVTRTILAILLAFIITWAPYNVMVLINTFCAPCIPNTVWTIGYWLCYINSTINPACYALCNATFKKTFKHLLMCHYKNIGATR

[14] = target: Muscarinic M3 (Homo sapiens, UniProt P20309); settings: for % Inhibition: 10 μM
[15] = system: Nicotinic Acetylcholine; settings: 10 μM; human
[16] = target: Nicotinic Acetylcholine a1, Bungarotoxin (Homo sapiens, UniProt P02708+P07510+Q07001); settings: for % Inhibition: 10 μM, human
[17] = target: Opiate μ(OP3, MOP) (Homo sapiens, UniProt P35372); settings: for % Inhibition: 10 μM
[18] = system: Phorbol Ester; settings: 10 μM; mouse
[19] = target: Potassium Channel (KATP) (Cricetus cricetus, UniProt Q09427); settings: hamster; for % Inhibition: 10 μM
[20] = target: Prostanoid EP4 (Homo sapiens, UniProt P35408); settings: for % Inhibition: 10 μM
[21] = system: Rolipram; settings: 10 μM; rat
[22] = target: Sigma σ1 (Homo sapiens, UniProt Q99720); settings: for % Inhibition: 10 μM
[23] = system: Sodium Channel, Site 2; settings: 10 μM; rat
[24] = target: Transporter, Norepinephrine (NET) (Homo sapiens, UniProt P23975); settings: for % Inhibition: 10 μM

Adrenergic β1, sequence (P08588 whole entry): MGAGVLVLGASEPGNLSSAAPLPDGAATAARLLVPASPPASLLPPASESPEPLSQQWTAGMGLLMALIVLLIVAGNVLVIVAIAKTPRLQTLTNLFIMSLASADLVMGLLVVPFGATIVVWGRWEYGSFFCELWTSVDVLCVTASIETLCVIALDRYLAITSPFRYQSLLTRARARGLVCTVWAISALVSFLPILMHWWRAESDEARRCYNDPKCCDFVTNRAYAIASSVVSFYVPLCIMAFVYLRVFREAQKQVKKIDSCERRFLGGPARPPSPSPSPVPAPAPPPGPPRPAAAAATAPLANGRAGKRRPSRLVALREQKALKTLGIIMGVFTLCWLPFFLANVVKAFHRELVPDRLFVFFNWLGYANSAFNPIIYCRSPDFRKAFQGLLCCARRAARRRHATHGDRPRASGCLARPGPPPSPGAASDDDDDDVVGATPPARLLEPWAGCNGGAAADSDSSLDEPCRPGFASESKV
Muscarinic M3, sequence (P20309 whole entry): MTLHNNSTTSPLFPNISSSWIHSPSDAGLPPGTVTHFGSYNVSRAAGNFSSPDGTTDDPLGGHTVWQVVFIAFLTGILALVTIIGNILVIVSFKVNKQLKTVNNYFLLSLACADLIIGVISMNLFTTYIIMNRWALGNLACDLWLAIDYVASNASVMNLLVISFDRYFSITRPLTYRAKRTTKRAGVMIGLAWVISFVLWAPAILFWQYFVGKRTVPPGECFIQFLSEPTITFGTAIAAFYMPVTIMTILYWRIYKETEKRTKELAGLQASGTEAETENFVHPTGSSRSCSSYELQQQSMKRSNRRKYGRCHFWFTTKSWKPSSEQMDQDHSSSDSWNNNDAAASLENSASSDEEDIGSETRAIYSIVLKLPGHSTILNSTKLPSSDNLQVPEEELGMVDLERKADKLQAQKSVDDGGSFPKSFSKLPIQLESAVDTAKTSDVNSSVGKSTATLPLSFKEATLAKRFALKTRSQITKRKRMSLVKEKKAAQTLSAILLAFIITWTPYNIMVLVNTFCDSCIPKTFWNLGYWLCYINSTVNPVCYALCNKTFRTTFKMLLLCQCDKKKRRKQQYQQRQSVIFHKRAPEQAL
Dopamine D2s, sequence (P14416 1-414 isoform P14416-2): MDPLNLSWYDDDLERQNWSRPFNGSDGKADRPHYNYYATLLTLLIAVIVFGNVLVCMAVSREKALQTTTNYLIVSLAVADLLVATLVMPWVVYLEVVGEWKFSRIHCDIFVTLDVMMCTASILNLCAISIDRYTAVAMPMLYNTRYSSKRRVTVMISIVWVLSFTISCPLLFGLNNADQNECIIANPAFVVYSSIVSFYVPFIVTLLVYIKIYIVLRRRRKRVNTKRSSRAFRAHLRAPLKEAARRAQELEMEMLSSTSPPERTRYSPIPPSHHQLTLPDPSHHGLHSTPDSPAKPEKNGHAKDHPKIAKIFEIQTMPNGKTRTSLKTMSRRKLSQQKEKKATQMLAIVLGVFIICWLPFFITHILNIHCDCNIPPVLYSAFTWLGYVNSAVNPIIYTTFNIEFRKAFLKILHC
Dopamine D1, sequence (P21728 whole entry): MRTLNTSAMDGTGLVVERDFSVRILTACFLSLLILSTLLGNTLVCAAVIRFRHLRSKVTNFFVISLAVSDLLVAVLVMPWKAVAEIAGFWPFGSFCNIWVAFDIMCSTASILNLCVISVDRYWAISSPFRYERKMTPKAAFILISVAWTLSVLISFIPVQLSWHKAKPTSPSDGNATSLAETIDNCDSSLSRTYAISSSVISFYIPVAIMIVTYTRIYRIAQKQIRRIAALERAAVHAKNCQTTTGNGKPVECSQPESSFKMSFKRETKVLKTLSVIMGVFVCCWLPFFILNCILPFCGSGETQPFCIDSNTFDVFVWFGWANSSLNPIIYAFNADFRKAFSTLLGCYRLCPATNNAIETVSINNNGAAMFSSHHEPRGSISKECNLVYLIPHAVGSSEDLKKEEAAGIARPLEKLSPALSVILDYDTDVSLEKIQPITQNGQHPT
Adrenergic β2, sequence (P07550 whole entry): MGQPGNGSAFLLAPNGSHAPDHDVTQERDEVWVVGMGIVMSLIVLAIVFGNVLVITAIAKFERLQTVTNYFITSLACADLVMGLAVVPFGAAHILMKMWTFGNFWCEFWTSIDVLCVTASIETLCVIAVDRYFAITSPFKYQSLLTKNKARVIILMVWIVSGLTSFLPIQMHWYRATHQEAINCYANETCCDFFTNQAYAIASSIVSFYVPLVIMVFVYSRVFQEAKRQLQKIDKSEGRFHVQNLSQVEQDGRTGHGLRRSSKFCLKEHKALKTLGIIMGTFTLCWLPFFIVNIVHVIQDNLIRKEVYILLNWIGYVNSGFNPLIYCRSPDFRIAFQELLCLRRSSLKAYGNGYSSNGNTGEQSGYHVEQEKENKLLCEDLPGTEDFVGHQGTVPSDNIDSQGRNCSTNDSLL
Sigma σ1, sequence (Q99720 whole entry): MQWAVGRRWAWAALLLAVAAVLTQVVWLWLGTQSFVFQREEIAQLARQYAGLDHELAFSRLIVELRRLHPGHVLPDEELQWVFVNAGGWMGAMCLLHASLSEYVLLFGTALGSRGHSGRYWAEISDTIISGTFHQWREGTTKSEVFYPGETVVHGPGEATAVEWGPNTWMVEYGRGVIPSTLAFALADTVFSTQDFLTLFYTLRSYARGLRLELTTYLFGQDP
Potassium Channel (KATP), sequence (Q09427 whole entry): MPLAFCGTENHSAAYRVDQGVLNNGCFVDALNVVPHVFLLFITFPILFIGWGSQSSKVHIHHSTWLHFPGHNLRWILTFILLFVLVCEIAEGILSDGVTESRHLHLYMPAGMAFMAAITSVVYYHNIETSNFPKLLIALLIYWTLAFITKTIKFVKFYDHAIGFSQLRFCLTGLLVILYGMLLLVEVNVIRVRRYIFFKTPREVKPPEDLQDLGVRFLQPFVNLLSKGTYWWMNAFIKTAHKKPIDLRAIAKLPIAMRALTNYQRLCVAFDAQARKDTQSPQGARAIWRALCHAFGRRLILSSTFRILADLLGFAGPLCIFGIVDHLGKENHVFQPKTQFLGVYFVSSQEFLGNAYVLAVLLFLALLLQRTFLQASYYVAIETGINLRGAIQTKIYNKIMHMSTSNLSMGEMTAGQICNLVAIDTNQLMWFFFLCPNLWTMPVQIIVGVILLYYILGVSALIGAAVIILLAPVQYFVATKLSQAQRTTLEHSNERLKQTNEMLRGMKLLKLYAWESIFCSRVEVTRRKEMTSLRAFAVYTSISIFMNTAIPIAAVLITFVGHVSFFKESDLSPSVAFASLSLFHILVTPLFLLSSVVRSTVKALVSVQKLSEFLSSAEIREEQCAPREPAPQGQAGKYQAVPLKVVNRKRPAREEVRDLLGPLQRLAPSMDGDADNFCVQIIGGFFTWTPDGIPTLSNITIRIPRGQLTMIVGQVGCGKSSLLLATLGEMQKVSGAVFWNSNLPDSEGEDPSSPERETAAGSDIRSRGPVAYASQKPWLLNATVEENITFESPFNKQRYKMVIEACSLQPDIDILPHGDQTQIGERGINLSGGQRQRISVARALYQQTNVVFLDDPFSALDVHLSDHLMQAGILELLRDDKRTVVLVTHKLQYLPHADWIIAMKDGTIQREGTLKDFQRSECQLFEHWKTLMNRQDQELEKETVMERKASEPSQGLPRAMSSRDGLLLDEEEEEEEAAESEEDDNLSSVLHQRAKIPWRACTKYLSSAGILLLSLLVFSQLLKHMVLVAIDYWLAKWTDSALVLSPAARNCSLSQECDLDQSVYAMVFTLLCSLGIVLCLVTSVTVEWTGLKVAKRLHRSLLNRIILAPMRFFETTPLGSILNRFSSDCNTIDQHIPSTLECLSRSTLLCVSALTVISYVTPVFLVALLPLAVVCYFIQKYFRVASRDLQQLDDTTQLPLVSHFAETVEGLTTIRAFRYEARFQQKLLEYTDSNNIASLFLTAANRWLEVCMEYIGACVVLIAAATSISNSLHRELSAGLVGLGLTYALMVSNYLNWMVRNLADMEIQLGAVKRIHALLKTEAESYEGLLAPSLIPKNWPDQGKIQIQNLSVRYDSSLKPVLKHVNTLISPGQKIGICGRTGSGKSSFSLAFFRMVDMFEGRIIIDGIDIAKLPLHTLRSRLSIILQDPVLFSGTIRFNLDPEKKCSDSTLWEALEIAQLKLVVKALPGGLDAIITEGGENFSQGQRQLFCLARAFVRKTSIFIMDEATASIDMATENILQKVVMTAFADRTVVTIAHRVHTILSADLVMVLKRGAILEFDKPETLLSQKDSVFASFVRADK
Prostanoid EP4, sequence (P35408 whole entry): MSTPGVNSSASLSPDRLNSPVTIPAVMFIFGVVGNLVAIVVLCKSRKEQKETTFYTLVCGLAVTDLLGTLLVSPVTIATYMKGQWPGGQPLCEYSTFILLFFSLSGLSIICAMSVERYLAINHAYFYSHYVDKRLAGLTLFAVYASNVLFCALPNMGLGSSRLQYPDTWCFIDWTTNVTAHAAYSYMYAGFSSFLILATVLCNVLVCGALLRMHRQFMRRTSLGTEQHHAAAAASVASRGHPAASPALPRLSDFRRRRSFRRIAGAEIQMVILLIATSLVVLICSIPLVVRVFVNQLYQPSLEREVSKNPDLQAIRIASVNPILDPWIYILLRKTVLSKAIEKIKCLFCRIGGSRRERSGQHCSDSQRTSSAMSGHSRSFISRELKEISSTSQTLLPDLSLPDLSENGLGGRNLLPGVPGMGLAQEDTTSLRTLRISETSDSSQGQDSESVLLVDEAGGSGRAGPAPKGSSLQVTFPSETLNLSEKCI

`O=C(Nc1nnc(-c2ccc(F)cc2)o1)N1CCc2ccccc2C1` [MBX-4132] was tested. Which “% Inhibition” value [1] did it give?
The value was 21%.

And the “% Inhibition” value [2]?
The value was 54%.

And the “% Inhibition” value [3]?
The value was −10%.

And the “% Inhibition” value [4]?
Its value is 36%.

What about the “% Inhibition” value [5] of the same molecule?
Its value is 15%.

What about the “% Inhibition” value [6] of the same molecule?
Its value is 14%.

What about the “% Inhibition” value [7] of the same molecule?
The value was −8%.

What about the “% Inhibition” value [8] of the same molecule?
Its value is 25%.

What about the “% Inhibition” value [9] of the same molecule?
Its value is 13%.

What about the “% Inhibition” value [10] of the same molecule?
Its value is 1%.

And the “% Inhibition” value [11]?
The value was −3%.

What about the “% Inhibition” value [12] of the same molecule?
Its value is 33%.

What about the “% Inhibition” value [13] of the same molecule?
Its value is 13%.

What about the “% Inhibition” value [14] of the same molecule?
The value was 16%.

And the “% Inhibition” value [15]?
Its value is −8%.

And the “% Inhibition” value [16]?
The value was 0%.

What about the “% Inhibition” value [17] of the same molecule?
Its value is 74%.

And the “% Inhibition” value [18]?
The value was 4%.

And the “% Inhibition” value [19]?
The value was 10%.

What about the “% Inhibition” value [20] of the same molecule?
The value was 18%.

What about the “% Inhibition” value [21] of the same molecule?
Its value is 2%.

What about the “% Inhibition” value [22] of the same molecule?
The value was −4%.

What about the “% Inhibition” value [23] of the same molecule?
Its value is 4%.

What about the “% Inhibition” value [24] of the same molecule?
Its value is 50%.

Which results are given for `O=C(Nc1nnc(-c2ccc(F)cc2)o1)c1ccc(Oc2ccccc2)nc1` [MBX-4237]?
inhibition at 10 µM [1]: -2%; inhibition at 10 µM [2]: -8%; inhibition at 10 µM [3]: -9%; inhibition at 10 µM [4]: 15%; % Inhibition [5]: 2%; inhibition at 10 µM [6]: 7%; inhibition at 10 µM [7]: 7%; inhibition at 10 µM [8]: -3%; % Inhibition [9]: 25%; % Inhibition [10]: −6%; % Inhibition [11]: 9%; % Inhibition [12]: 14%; inhibition at 10 µM [13]: 17%; inhibition at 10 µM [14]: 11%; % Inhibition [15]: 8%; inhibition at 10 µM [16]: -8%; inhibition at 10 µM [17]: 12%; % Inhibition [18]: 2%; inhibition at 10 µM [19]: 9%; inhibition at 10 µM [20]: -22%; % Inhibition [21]: 1%; inhibition at 10 µM [22]: 32%; % Inhibition [23]: −3%; inhibition at 10 µM [24]: 45%

What does the source list for `O=C(Nc1nnc(-c2ccc(F)cc2)o1)c1ccc(OC2CCCCC2)cc1` [MBX-4292]?
% Inhibition [1]: 3%; % Inhibition [2]: 3%; % Inhibition [3]: 3%; % Inhibition [4]: 6%; % Inhibition [5]: 23%; % Inhibition [6]: 11%; % Inhibition [7]: 17%; % Inhibition [8]: 1%; % Inhibition [9]: −1%; % Inhibition [10]: −4%; % Inhibition [11]: 0%; % Inhibition [12]: 10%; % Inhibition [13]: 0%; % Inhibition [14]: 0%; % Inhibition [15]: 1%; % Inhibition [16]: −4%; % Inhibition [17]: 4%; % Inhibition [18]: 2%; % Inhibition [19]: 8%; % Inhibition [20]: 28%; % Inhibition [21]: −8%; % Inhibition [22]: 10%; % Inhibition [23]: −2%; % Inhibition [24]: 77%

What does the source list for `O=C(Nc1nnc(-c2ccc(F)cc2)o1)N1CC=C(C(F)(F)F)CC1` [MBX-4347]?
% Inhibition [1]: 7%; % Inhibition [2]: 9%; % Inhibition [3]: 3%; % Inhibition [4]: 8%; % Inhibition [5]: 16%; % Inhibition [6]: 0%; % Inhibition [7]: 5%; % Inhibition [8]: −2%; % Inhibition [9]: 22%; % Inhibition [10]: 4%; % Inhibition [11]: 5%; % Inhibition [12]: −5%; % Inhibition [13]: 2%; % Inhibition [14]: 2%; % Inhibition [15]: −4%; % Inhibition [16]: 2%; % Inhibition [17]: −14%; % Inhibition [18]: 7%; % Inhibition [19]: 2%; % Inhibition [20]: −4%; % Inhibition [21]: −6%; % Inhibition [22]: −2%; % Inhibition [23]: −5%; % Inhibition [24]: 32%
